PMC10004634 (PLOS ONE, 2023)
Entries after “also recorded” stand apart in the source; their conditions may differ.

Tests used:
[1] = biological target: CSK (Homo sapiens, UniProt P41240); experiment: KinAffinity cell-based binding assay using PBMC; design: purchased Carna Biosciences Inc
[2] = system: TMD8 cells; experiment: RT-qPCR of IRF4, BCL6, MYC mRNA; format: cell-based, human; conditions: 24 h
Method: After culturing, total RNA was isolated from cells using the RNeasy Plus Mini Kit (Qiagen), then cDNA was prepared from total RNA using the SuperScript VILO cDNA Synthesis Kit (Invitrogen) following the kit instructions. For quantification of each mRNA expression level, PCR was performed using TaqMan Fast Universal PCR Master Mix (Thermo Fisher Scientific) under the following conditions with the AriaMx Real Time PCR System (Agilent Technologies): 95°C for 3 min, followed by 40 cycles at 95°C for 5 s and 60°C for 20 s with continuous fluorescence measurement. All PCRs were performed in triplicate, and the mRNA expression of GAPDH was used as an internal control. The results (fold changes of the threshold cycle [Ct] relative to the control group) were obtained using the 2^−ΔΔCt method. The TaqMan probes for IRF4 (Assay ID: Hs00180031_m1), BCL6 (Assay ID: Hs00153368_m1), MYC (Assay ID: Hs00153408_m1), and GAPDH (Assay ID: Hs02786624_g1) were purchased from Thermo Fisher Scientific. Statistical tests were performed with the SAS 9.4 (SAS Institute Japan Ltd., Tokyo, Japan) TS1M4-based EXSUS system version 10.1.3 (CAC Corporation, Tokyo, Japan). The t-test or Dunnett test was used to compare mRNA expression in the DMSO- and compound-treated groups. The statistical tests were two-sided with a 5% significance level.

[3] = system: other BioMAP systems such as the T-cell and fibroblast activation systems; experiment: BioMAP Diversity PLUS profiling, other evaluation systems; format: cell-based, human; conditions: 120, 370, 1100, 3300 nM
Method: In brief, cultures with one or more primary cell types from healthy human donors were treated with sets of stimulators specific to the cell subsets, and the optimized biomarker readouts for each system were measured by ELISA and other techniques, as listed in S1 Table. The assays included positive and negative controls as well as vehicle control. Results are presented as the log-transformed ratio of biomarker readouts for tirabrutinib-treated samples to vehicle controls.

[4] = biological target: RIPK2 (Homo sapiens, UniProt O43353); experiment: KINOMEscan binding assay; conditions: 300 nM; read-out: inhibition of kinase binding (KINOMEscan)
Chain of RIPK2 (O43353 whole entry): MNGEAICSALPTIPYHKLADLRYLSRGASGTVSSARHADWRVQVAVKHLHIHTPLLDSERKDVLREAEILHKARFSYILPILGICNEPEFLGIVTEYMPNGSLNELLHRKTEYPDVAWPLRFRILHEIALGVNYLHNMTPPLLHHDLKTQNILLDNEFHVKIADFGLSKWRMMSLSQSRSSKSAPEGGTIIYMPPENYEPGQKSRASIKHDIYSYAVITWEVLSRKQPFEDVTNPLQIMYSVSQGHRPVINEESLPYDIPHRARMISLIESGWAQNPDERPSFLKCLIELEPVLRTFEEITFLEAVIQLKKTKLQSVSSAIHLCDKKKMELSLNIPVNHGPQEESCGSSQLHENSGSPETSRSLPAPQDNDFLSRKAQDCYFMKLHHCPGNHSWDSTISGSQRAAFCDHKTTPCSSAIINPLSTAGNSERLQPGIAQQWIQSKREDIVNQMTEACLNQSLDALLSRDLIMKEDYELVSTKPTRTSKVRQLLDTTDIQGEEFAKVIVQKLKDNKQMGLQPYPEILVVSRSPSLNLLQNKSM

[5] = biological target: ERBB2 (Homo sapiens, UniProt P04626); experiment: Z'-Lyte kinase inhibition assay; format: biochemical; design: purchased Thermo Fisher Scientific (Invitrogen Z'-Lyte service); conditions: 60 min preincubation
Chain of ERBB2 (P04626 23-1255): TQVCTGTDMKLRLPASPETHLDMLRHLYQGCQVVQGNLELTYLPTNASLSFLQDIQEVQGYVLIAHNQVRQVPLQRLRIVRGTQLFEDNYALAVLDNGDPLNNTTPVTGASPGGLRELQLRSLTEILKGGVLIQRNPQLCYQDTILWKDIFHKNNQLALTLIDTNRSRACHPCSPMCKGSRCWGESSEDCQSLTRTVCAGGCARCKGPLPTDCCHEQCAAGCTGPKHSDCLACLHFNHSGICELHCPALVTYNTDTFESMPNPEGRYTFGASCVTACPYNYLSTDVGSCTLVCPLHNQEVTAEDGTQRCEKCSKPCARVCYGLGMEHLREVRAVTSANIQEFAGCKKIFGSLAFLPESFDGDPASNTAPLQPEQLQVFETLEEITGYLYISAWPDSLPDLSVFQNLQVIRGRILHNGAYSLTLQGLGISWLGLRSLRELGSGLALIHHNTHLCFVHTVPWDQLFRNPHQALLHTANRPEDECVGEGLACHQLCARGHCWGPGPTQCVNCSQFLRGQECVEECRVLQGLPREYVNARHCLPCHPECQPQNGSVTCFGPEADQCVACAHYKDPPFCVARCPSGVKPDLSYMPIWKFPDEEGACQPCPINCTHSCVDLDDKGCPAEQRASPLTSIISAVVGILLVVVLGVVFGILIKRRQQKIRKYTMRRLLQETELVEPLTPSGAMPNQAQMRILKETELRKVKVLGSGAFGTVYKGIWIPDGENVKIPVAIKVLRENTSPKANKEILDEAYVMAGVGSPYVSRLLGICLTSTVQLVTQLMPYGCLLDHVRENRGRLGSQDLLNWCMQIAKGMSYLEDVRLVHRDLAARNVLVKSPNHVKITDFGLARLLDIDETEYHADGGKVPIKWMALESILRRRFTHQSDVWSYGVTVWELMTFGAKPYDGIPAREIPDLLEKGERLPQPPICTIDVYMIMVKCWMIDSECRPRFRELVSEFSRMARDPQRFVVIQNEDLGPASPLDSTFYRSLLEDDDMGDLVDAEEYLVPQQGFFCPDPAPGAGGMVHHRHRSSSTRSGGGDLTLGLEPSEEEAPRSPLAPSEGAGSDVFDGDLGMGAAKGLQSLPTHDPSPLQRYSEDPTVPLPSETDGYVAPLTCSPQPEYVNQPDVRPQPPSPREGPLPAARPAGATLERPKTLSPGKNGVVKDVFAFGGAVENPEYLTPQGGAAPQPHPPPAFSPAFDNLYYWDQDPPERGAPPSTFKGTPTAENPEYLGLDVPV
Method: In all the assays, each test compound was preincubated with peptide/kinase mixture or kinase/antibody mixture for 60 min at room temperature before adding the ATP solution or AlexaFluor labeled Tracer to initiate the 60-min incubation of the reactants.

[6] = tirabrutinib 1 μM, BMS-345541 10 μM, MK-2206 1 μM, refametinib 0.1 μM

Chain of CSK (P41240 whole entry): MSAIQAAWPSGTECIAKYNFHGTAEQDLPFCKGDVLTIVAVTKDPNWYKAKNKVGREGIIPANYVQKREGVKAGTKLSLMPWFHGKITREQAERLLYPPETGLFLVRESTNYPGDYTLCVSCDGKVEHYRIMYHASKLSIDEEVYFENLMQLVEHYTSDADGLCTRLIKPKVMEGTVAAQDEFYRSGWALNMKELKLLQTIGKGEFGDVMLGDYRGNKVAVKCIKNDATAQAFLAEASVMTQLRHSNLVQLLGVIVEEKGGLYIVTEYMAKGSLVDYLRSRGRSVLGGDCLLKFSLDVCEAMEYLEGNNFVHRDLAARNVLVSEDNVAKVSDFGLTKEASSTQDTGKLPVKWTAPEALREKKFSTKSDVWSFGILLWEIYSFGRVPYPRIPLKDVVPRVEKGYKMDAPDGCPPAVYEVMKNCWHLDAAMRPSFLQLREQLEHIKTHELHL

SMILES | Kd [1] | BCL6 mRNA expression ([2]; 1 μM) | IRF4 mRNA expression [2, 6] | MYC mRNA expression [2, 6] | effect in other BioMAP evaluation systems [3] | inhibition at 0.3 µM [4] | IC50 [5]
CC#CC(=O)N1CC[C@@H](n2c(=O)n(-c3ccc(Oc4ccccc4)cc3)c3c(N)ncnc32)C1 [Tirabrutinib] | > 3000 nM | upregulated | downregulated; also recorded: strongly inhibited | partially downregulated | no significant effect | 67% | –
C=CC(=O)N1CCC([C@@H]2CCNc3c(C(N)=O)c(-c4ccc(Oc5ccccc5)cc4)nn32)CC1 [Zanubrutinib] | – | – | – | – | – | – | 34.8 nM
